In patent publication US12551573B2, “Compositions and methods for the targeting of PCSK9” (Scribe Therapeutics Inc., priority 2022, dated 2026):

Tested on: human PCSK9 locus
Assay: Secreted PCSK9 by ELISA (normalized to total cell count) in Huh7 cells transfected with mRNA and gRNA
Format: cell-based
Details: for Secreted PCSK9 / Percent reduction in PCSK9 secretion / Average percent reduction in PCSK9 secretion: Huh7 cells, 6 days post-transfection; for Secreted PCSK9: normalized to total cell count; for Percent reduction in PCSK9 secretion: relative to non-targeting gRNA control; for Average percent reduction in PCSK9 secretion: averaged from the two doses
Experimental: To assess PCSK9 secretion, seeded Huh7 cells were transfected with mRNA encoding a catalytically-active CasX 676, dXR1, or LTRP5-ADD-ZIM3 and a gRNA with scaffold 316 and spacer targeting either the B2M or PCSK9 locus. Media supernatant was harvested at 6, 18, 36, and 87 days post-transfection to assess level of PCSK9 secretion by ELISA. Levels of PCSK9 secretion were normalized to total cell count. As an additional control, PCSK9 secretion was also measured in the media supernatant harvested from wells containing untreated, naïve cells.
The following three human hepatocyte cancer cell lines were used in this experiment: HepG2 cells, Hep3B cells, and Huh7 cells. ˜15,000 cells of each cell line were seeded per well; the next day, seeded cells were transfected with mRNA encoding a catalytically-active CasX 676, dXR1, or LTRP5-ADD-ZIM3 and a gRNA with scaffold 316 and spacer targeting either the B2M or PCSK9 locus (see Table 23 for specific spacers and sequences). Media supernatant was harvested at 4 days post-transfection to assess level of PCSK9 secretion by ELISA, and levels of PCSK9 secretion were normalized to total cell count and illustrated in FIGS. 11A-11C. Culturing of treated Huh7 cells continued, and media supernatant was harvested at 14 and 27 days post-transfection for measuring PCSK9 secretion by ELISA. As an additional experimental control, PCSK9 secretion was also measured in the media supernatant harvested from wells containing untreated, naïve cells.
To assess PCSK9 secretion, seeded Huh7 cells were co-transfected with mRNA encoding for LTRP5-ADD-ZIM3 and a gRNA with scaffold 316 and spacer targeting the PCSK9 locus using Lipofectamine™ 3000. Two doses of total RNA input at a 2:1 mass ratio of mRNA to gRNA were used for screening: 50 ng mRNA: 25 ng gRNA and 25 ng mRNA: 12.5 ng gRNA. Media supernatant was harvested at 6 days post-transfection to assess level of PCSK9 secretion by ELISA (Table 74). Levels of PCSK9 secretion were normalized to total cell count. As an additional control, PCSK9 secretion was also measured in the media supernatant harvested from cells transfected with mRNA encoding for mScarlet.

[1] = 25 ng mRNA:12.5 ng gRNA, paired with LTRP5-ADD-ZIM3 mRNA
[2] = 50 ng mRNA:25 ng gRNA, paired with LTRP5-ADD-ZIM3 mRNA
[3] = paired with LTRP5-ADD-ZIM3 mRNA

Row | Sequence | Secreted PCSK9 [1] [ng/mL] | Percent reduction in PCSK9 secretion [1] [%] | Secreted PCSK9 [2] [ng/mL] | Percent reduction in PCSK9 secretion [2] [%] | Average percent reduction in PCSK9 secretion [3] [%] | average reduction in secreted PCSK9 levels (Huh7, LTRP5-ADD-ZIM3 mRNA + gRNA scaffold 316 (v1), 6 days, averaged from two doses (50 ng mRNA:25 ng gRNA, 25 ng:12.5 ng), relative to non-targeting gRNA) [%] | repression of PCSK9 secretion by spacer (Huh7, paired with LTRP5-ADD-ZIM3 mRNA, scaffold 316, days 4, 14, 27)
1 | AAACUUAGCCUGGACCCCCU (listed as RNA, chemistry not given here) [spacer 6.140, Promoter] | 59.94 | 15.87 | 61.68 | 25.04 | 20.45 |  | 
2 | ACUGGCCUUAACCUGGCAGC (listed as RNA, chemistry not given here) [spacer 6.141, Promoter] | 12.58 | 82.34 | 13.86 | 83.16 | 82.75 | 82.75 | 
3 | ACUUUGUUUGCAAAGACCUC (listed as RNA, chemistry not given here) [spacer 6.117, Promoter] | 98.05 | 37.62 | 68.98 | 16.16 | 10.73 |  | 
4 | AGAAAGAGCAAGCCUCAUGU (listed as RNA, chemistry not given here) [spacer 6.125, Promoter] | 46.11 | 35.28 | 24.93 | 69.7 | 52.49 |  | 
5 | AGAAAUCAACUGGACAAGCA (listed as RNA, chemistry not given here) [spacer 6.128, Promoter] | 62.29 | 12.57 | 42.21 | 48.7 | 30.63 |  | 
6 | AGAAGAUUCAAUUUGCAAAG (listed as RNA, chemistry not given here) [spacer 6.132, Promoter] | 75.01 | 5.29 | 56.68 | 31.11 | 12.91 |  | 
7 | AGCCCAGUUAGGAUUUGGGA (listed as RNA, chemistry not given here) [spacer 6.149, Promoter] | 38.33 | 46.21 | 21.18 | 74.26 | 60.23 |  | 
8 | AGGAGCAGCUAGUUGGUAAG (listed as RNA, chemistry not given here) [spacer 6.139, Promoter] | 25.45 | 64.28 | 15.03 | 81.73 | 73.01 |  | 
9 | AGGGAUUUAUACUACAAAGA (listed as RNA, chemistry not given here) [spacer 6.138, Promoter] | 30.87 | 56.67 | 18.99 | 76.92 | 66.79 |  | most effective repression of PCSK9 secretion
